Values of other authors in patent US20230363996A1, “HAIR CARE COMPOSITION” (Conopco, Inc., d/b/a UNILEVER, priority 2020, published 2023).

Conditions: organic/aqueous partition

| log P | Structure (SMILES) |
| --- | --- |
| 3.15 | O=C(c1ccccc1)c1ccc(O)cc1O [benzophenone-1] |
| 3.09 | O=C(c1ccc(O)cc1O)c1ccc(O)cc1O [benzophenone-2] |
| 3.99 | COc1ccc(C(=O)c2ccccc2)c(O)c1 [benzophenone-3] |
| 4.78 | COc1ccc(C(=O)c2ccc(OC)cc2O)c(O)c1 [benzophenone-6] |
| 4.51 | O=C(c1ccccc1)c1cc(Cl)ccc1O [benzophenone-7] |
| 4.31 | COc1ccc(C(=O)c2ccccc2O)c(O)c1 [benzophenone-8] |
| 4.66 | COc1ccc(C(=O)c2ccc(C)cc2)c(O)c1 [benzophenone-10] |

| Structure (SMILES) | log P |
| --- | --- |
| COc1cc(O)c(C(=O)c2ccccc2)cc1S(=O)(=O)O [Benzophenone-4, reference compound] | Benzophenone-4 (logP = 0.99) |
